Biological target: T1, adenosine receptor (Rattus norvegicus, UniProt P25099)
T1 sequence (P25099 1-326): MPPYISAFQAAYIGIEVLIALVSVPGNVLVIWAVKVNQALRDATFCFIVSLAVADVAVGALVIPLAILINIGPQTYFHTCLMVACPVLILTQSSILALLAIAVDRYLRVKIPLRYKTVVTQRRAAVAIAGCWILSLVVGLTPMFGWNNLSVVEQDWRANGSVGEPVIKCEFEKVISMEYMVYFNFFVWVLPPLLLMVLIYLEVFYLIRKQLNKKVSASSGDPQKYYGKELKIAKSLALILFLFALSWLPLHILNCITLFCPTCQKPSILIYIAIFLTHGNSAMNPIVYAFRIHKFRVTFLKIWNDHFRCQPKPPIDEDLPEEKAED
Experiment: Binding of monoclonal anti-idiotypic antibodies to adenosine receptor preparation and rabbit anti-CPA
Details: adenosine receptor preparation from rat brain
Description: Protocols for immunization and fusion were essentially identical to that described previously for BisQ in Example 2. Immunization was effected with the RSA conjugate, but the BSA conjugate is just as satisfactory. Screening was conducted with the BSA conjugate and with a specifically purified rabbit antibody raised by immunization with the BSA conjugate. Specifically purified antibody was prepared in a manner analogous to that described for anti-BisQ antibody (1) except that the immunoadsorbent was N^6 -(carboxypentamethylene) adenosine linked to aminohexylsepharose (Pharmacia).

OC[C@H]1O[C@@H](n2cnc3c(NC4CCCCC4)ncnc32)[C@H](O)[C@@H]1O [N^6 -cyclohexyladenosine]
inhibition of the reaction of monoclonal anti-idiotypic antibodies with adenosine receptor: could be inhibited
